Consider eight compounds from ChEMBL document CHEMBL1201862, “PubChem BioAssay data set” (2004).

Among the test systems are Malme-3M; CAKI-1; SNB-19; HCC 2998; A549; NCI-H226; EKVX; SK-MEL-5; HOP-62; TK-10; SN12C; SK-OV-3; KM12; SK-MEL-28; HCT-15; SF-295; MDA-N; UO-31; MDA-MB-435.
Common to all, as to experiment: NCI-60 cell line screen, 48 h

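Values below derive from 48-hour exposures of cells grown in 96-well plates, with endpoints linearly interpolated between the two concentrations bracketing the appropriate inhibition level. GI50: concentration for 50% inhibition of growth.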 Activity calls are given as the source filed them. Rule as the data show it: active = GI50 up to about 1.1 µM and inactive = higher. Non-standard residues stand in square brackets, D forms with d. Residues, ends and D or L forms follow the SMILES beside them. ΔPro = O=C(O)[CH]1C=CCN1

With `Cc1ccc([N+](=O)[O-])cc1S(=O)(=O)Nc1ccc(C2=NN(S(=O)(=O)c3cc([N+](=O)[O-])ccc3C)C(c3ccccc3O)C2)cc1` (configuration not stated), the GI50 is > 100 µM (inactive) with Malme-3M; > 100 µM (inactive) in the assay with CAKI-1; 42.4 µM (inactive) in the assay on SNB-19; > 100 µM (inactive) with HCC 2998; 82.2 µM (inactive) in the assay with A549; > 100 µM (inactive) in the assay with NCI-H226. Moreover, the GI50 in the assay with EKVX was 57.7 µM (inactive); in the assay with SK-MEL-5, > 100 µM (inactive); in the assay on HOP-62, 47.5 µM (inactive); in the assay with TK-10 it was 52.5 µM (inactive); in the assay on SN12C, > 100 µM (inactive); in the assay on SK-OV-3 it was 51.8 µM (inactive). In addition, the GI50 is > 100 µM (inactive) with KM12; > 100 µM (inactive) in the assay on SK-MEL-28; more than 100 µM with HCT-15; 34.4 µM (inactive) with SF-295; > 100 µM (inactive) in the assay on MDA-N; > 100 µM (inactive) with UO-31. The GI50 in the assay with MDA-MB-435 is > 100 µM (inactive).

For the compound `O=C(O)[C@@H]1C[C@@H](O)CN1C(=O)OCc1ccccc1`, the GI50 with Malme-3M, in the assay on CAKI-1, in the assay with SNB-19, in the assay with HCC 2998, in the assay on A549 and in the assay with NCI-H226 was > 100 µM (inactive) in each case. Moreover, the GI50 in the assay with EKVX, in the assay on SK-MEL-5, with HOP-62, in the assay with TK-10, with SN12C and with SK-OV-3 was > 100 µM (inactive) in each case. In addition, the GI50 in the assay on KM12 is > 100 µM (inactive); with SK-MEL-28 it was > 100 µM (inactive); in the assay on HCT-15, more than 100 µM; in the assay with SF-295, > 100 µM (inactive); in the assay with MDA-N, > 100 µM (inactive); in the assay with UO-31, > 100 µM (inactive). Further, in the assay with MDA-MB-435, the GI50 was > 100 µM (inactive).

As for `O=C1/C(=C/c2ccccc2)CCCC1CN1CCCCC1` (configuration not stated), the GI50 was 1.82 µM (inactive) with Malme-3M; 1.81 µM (inactive) in the assay with CAKI-1; 15.7 µM (inactive) with SNB-19; 15.6 µM (inactive) with HCC 2998; 17.5 µM (inactive) with A549; 3.45 µM (inactive) in the assay on NCI-H226. Further, the GI50 was 15.1 µM (inactive) in the assay on EKVX; 4.31 µM (inactive) with SK-MEL-5; 20.8 µM (inactive) with HOP-62; 2.59 µM (inactive) in the assay with TK-10; 5.9 µM (inactive) with SN12C; 17.2 µM (inactive) in the assay on SK-OV-3. The GI50 in the assay on KM12 is 1.19 µM (inactive); in the assay on SK-MEL-28, 1.97 µM (inactive); with HCT-15, 2.04 µM; in the assay on SF-295, 19.1 µM (inactive); in the assay on MDA-N, 2.11 µM (inactive); in the assay with UO-31, 1.88 µM (inactive). Further, the GI50 with MDA-MB-435 was 2 µM (inactive).

In the case of `O=C(O)C1C=CCN1C(=O)C1C=CCN1C(=O)C1C=CCN1` (configuration not stated) (H-[ΔPro]-[ΔPro]-[ΔPro]-OH; configuration not given here), the GI50 with Malme-3M was > 100 µM (inactive); in the assay on CAKI-1 it was > 100 µM (inactive); in the assay on SNB-19, > 100 µM (inactive); in the assay on HCC 2998, > 100 µM (inactive); in the assay on A549, > 100 µM (inactive); in the assay on NCI-H226, 33.5 µM (inactive). Further, the GI50 in the assay on EKVX was > 100 µM (inactive); in the assay on SK-MEL-5, > 100 µM (inactive); with HOP-62, > 100 µM (inactive); in the assay on TK-10, 30.1 µM (inactive); with SN12C, > 100 µM (inactive); with SK-OV-3, > 100 µM (inactive). Further, the GI50 is > 100 µM (inactive) with KM12; > 100 µM (inactive) with SK-MEL-28; more than 100 µM with HCT-15; > 100 µM (inactive) with SF-295; > 100 µM (inactive) in the assay on MDA-N; > 100 µM (inactive) in the assay with UO-31. Further, the GI50 with MDA-MB-435 was > 100 µM (inactive).

For `CC(=O)O[C@@H]1[C@H](C(C)C)[C@@H](OC(C)=O)C/C(C)=C/CC[C@]2(C)O[C@@H]12`, the GI50 in the assay with Malme-3M, with CAKI-1, in the assay with SNB-19, in the assay with HCC 2998, in the assay with A549 and in the assay on NCI-H226 was > 100 µM (inactive) throughout. For the same compound, the GI50 in the assay with EKVX, with SK-MEL-5, with HOP-62, in the assay on TK-10, with SN12C and in the assay on SK-OV-3 was > 100 µM (inactive) each time. Further, the GI50 in the assay on KM12 was > 100 µM (inactive); in the assay with SK-MEL-28 it was > 100 µM (inactive); with HCT-15 it was more than 100 µM; with SF-295, > 100 µM (inactive); with MDA-N, > 100 µM (inactive); with UO-31 it was > 100 µM (inactive). In the assay with MDA-MB-435, the GI50 was > 100 µM (inactive).

As to `Clc1cc(Cl)cc(/N=C/C=C/Nc2cc(Cl)cc(Cl)c2)c1`, the GI50 in the assay with Malme-3M is 30.5 µM (inactive); with CAKI-1, 15.2 µM (inactive); with SNB-19 it was 21.4 µM (inactive); in the assay with HCC 2998, 15.2 µM (inactive); in the assay with A549 it was 18.3 µM (inactive); in the assay on NCI-H226, 14.4 µM (inactive). Moreover, the GI50 is 5.12 µM (inactive) with EKVX; 15.1 µM (inactive) in the assay with SK-MEL-5; 23.7 µM (inactive) in the assay on HOP-62; 29.9 µM (inactive) in the assay with TK-10; 17.4 µM (inactive) with SN12C; 35.5 µM (inactive) with SK-OV-3. Moreover, the GI50 in the assay with KM12 is 16.2 µM (inactive); with SK-MEL-28, 25.3 µM (inactive); in the assay on HCT-15, 14.9 µM; in the assay with SF-295, 23 µM (inactive); in the assay with MDA-N, 19.4 µM (inactive); in the assay on UO-31, 23.4 µM (inactive). In the assay with MDA-MB-435, the GI50 is 18.6 µM (inactive).

With `Cc1cc(-c2nc3cc(F)ccc3s2)ccc1NC(=O)C(C)N` (configuration not stated), the GI50 is 15.2 µM (inactive) in the assay on Malme-3M; 3.28 µM (inactive) with CAKI-1; 4.72 µM (inactive) in the assay with SNB-19; 0.097 µM (active) in the assay on HCC 2998; 3.77 µM (inactive) in the assay on A549; > 25 µM (inactive) with NCI-H226. In addition, the GI50 in the assay on EKVX is 3.1 µM (inactive); in the assay with SK-MEL-5 it was 9.84 µM (inactive); with HOP-62, 3.97 µM (inactive); in the assay with TK-10 it was 0.0501 µM (active); in the assay with SN12C, 4.32 µM (inactive); in the assay with SK-OV-3 it was 4.1 µM (inactive). Moreover, the GI50 is 3.94 µM (inactive) in the assay on KM12; 5.25 µM (inactive) in the assay on SK-MEL-28; 2.65 µM in the assay with HCT-15; 3.82 µM (inactive) in the assay with SF-295; 4.21 µM (inactive) in the assay on MDA-N; 3.7 µM (inactive) with UO-31. Also, the GI50 with MDA-MB-435 was 4.81 µM (inactive).

Regarding `CSc1nc(C)c2c(n1)N(c1ccc(Cl)cc1)CC2`, the GI50 in the assay on Malme-3M, in the assay with CAKI-1, with SNB-19, in the assay with HCC 2998, in the assay on A549 and with NCI-H226 was > 100 µM (inactive) throughout. In addition, the GI50 with EKVX, in the assay on SK-MEL-5, in the assay with HOP-62, with TK-10, in the assay with SN12C and in the assay with SK-OV-3 was > 100 µM (inactive) throughout. Also, the GI50 was > 100 µM (inactive) with KM12; > 100 µM (inactive) with SK-MEL-28; more than 100 µM in the assay on HCT-15; > 100 µM (inactive) in the assay on SF-295; > 100 µM (inactive) in the assay on MDA-N; 0.342 µM (active) with UO-31. Besides, the GI50 with MDA-MB-435 is > 100 µM (inactive).
